The experiment addresses T1, human oxytocin receptor (Homo sapiens, UniProt P30559).
T1 construct: host or cells: CHO cells (pcDNA3.1 vector)
T1 sequence (P30559 1-389): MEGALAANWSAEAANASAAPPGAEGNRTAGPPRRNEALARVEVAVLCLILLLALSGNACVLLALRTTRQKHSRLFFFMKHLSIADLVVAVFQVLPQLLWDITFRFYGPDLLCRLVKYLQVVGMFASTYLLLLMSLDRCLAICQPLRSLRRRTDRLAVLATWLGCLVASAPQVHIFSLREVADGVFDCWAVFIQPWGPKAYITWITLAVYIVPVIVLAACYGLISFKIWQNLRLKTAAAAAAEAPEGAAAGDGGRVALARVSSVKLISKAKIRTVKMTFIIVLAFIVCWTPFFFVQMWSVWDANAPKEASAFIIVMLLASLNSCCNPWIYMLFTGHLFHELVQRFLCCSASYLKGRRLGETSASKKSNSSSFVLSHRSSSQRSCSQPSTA
The experiment is described as follows: Oxytocin binding in Chinese Hamster Ovary cell membranes expressing human oxytocin receptors. To be noted: 100 nM, CHO cell membranes, [3H]oxytocin, values without parentheses, read-out: OT % inhibition @ 100% nM.

The results in this text go back to patent publication US7109193B2, “Tricyclic diazepines tocolytic oxytocin receptor antagonists” (Wyeth, priority 2001, dated 2006).

In general, inhibition refers to how much of the control response was suppressed. On to `COc1cc(C(=O)N2Cc3ccc(C(=O)N4CCCN(C)CC4)n3Cc3ccccc32)ccc1-c1cccc2ccccc12` [Example 68, {10-[3-Methoxy-4-(1-naphthyl)benzoyl]-10,11-dihydro-5H-pyrrolo[2,1-c][1,4]benzodiazepin-3-yl}(4-methyl-1,4-diazepan-1-yl)methanone], for which the inhibition at 0.1 µM worked out at 64%.

As for `Cc1ccccc1-c1ccc(C(=O)N2Cc3ccc(C(=O)N4CCCN(C)CC4)n3Cc3ccccc32)cc1` [Example 65, {10-[(2′-Methyl[1,1′-biphenyl]-4-yl)carbonyl]-10,11-dihydro-5H-pyrrolo[2,1-c][1,4]benzodiazepin-3-yl}(4-methyl-1,4-diazepan-1-yl)methanone], the inhibition at 0.1 µM was found to be 68%.

As to `COc1cc(C(=O)N2Cc3ccc(C(=O)N4CCN(CCN5CCOCC5)CC4)n3Cc3ccccc32)ccc1-n1c(C)ccc1C` [Example 317, {10-[4-(2,5-Dimethyl-1H-pyrrol-1-yl)-3-methoxybenzoyl]-10,11-dihydro-5H-pyrrolo[2,1-c][1,4]benzodiazepin-3-yl}{4-[2-(4-morpholinyl)ethyl]-1-piperazinyl}methanone], the inhibition at 0.1 µM stood at 32%.

On to `COc1cc(C(=O)N2Cc3ccc(C(=O)N4CCN(CCCN(C)C)CC4)n3Cc3ccccc32)ccc1-c1cccc2ccccc12` [Example 253, {4-[3-(Dimethylamino)propyl]-1-piperazinyl}{10-[3-methoxy-4-(1-naphthyl)benzoyl]-10,11-dihydro-5H-pyrrolo[2,1-c][1,4]benzodiazepin-3-yl}methanone], for which the inhibition at 0.1 µM is 71%.

Take `COc1ccccc1-c1ccc(C(=O)N2Cc3ccc(C(=O)n4ccnc4)n3Cc3ccccc32)cc1C` [Example 292, 1H-Imidazol-1-yl-{10-[(2′-methoxy-2-methyl[1,1′-biphenyl]-4-yl)carbonyl]-10,11-dihydro-5H-pyrrolo[2,1-c][1,4]benzodiazepin-3-yl}methanone]: the inhibition at 0.1 µM worked out at 69%.

With `Cc1ccccc1-c1ccc(C(=O)N2Cc3ccc(C(=O)N4CCN(CCCN(C)C)CC4)n3Cc3ccccc32)cc1` [Example 249, {4-[3-(Dimethylamino)propyl]-1-piperazinyl}{10-[(2′-methyl[1,1′-biphenyl]-4-yl)carbonyl]-10,11-dihydro-5H-pyrrolo[2,1-c][1,4]benzodiazepin-3-yl}methanone], the inhibition at 0.1 µM was 18%.

Regarding `Cc1cc(C(=O)N2Cc3ccc(C(=O)N4CCN(CCCN(C)C)CC4)n3Cc3ccccc32)ccc1-c1ccccc1C(F)(F)F` [Example 257, {10-[(2-Methyl-2′-trifluoromethyl-[1,1′-biphenyl]-4-yl)carbonyl]-10,11-dihydro-5H-pyrrolo[2,1-c][1,4]benzodiazepin-3-yl}{4-[3-(dimethylamino)propyl]-1-piperazinyl}-methanone], the inhibition at 0.1 µM is 85%.

Regarding `Cc1ccccc1-c1ccc(C(=O)N2Cc3ccc(C(=O)N4CCN(C)CC4)n3Cc3ccccc32)cc1C` [Example 50, {10-[(2,2′-Dimethyl[1,1′-biphenyl]-4-yl)carbonyl]-10,11-dihydro-5H-pyrrolo[2,1-c][1,4]benzodiazepin-3-yl}(4-methyl-1-piperazinyl)methanone], the inhibition at 0.1 µM turned out to be 95%.

With `COc1ccccc1-c1ccc(C(=O)N2Cc3ccc(C(=O)N[C@@H](CCCCNC(=O)OC(C)(C)C)C(N)=O)n3Cc3ccccc32)cc1OC` [Example 303, tert-Butyl (5S)-6-amino-5-[({10-[(2,2′-dimethoxy[1,1′-biphenyl]-4-yl)carbonyl]-10,11-dihydro-5H-pyrrolo[2,1-c][1,4]benzodiazepin-3-yl}carbonyl)amino]-6-oxohexylcarbamate], the inhibition at 0.1 µM came to 66%.

On to `COc1cccc(-c2ccc(C(=O)N3Cc4ccc(C(=O)N5CCCN(C)CC5)n4Cc4ccccc43)cc2OC)c1` [Example 70, {10-[(2,3′-Dimethoxy[1,1′-biphenyl]-4-yl)carbonyl]-10,11-dihydro-5H-pyrrolo[2,1-c][1,4]benzodiazepin-3-yl}(4-methyl-1,4-diazepan-1-yl)methanone], for which the inhibition at 0.1 µM was 75%.

On to `COc1ccccc1-c1ccc(C(=O)N2Cc3ccc(C(=O)N[C@@H]4CN5CCC4CC5)n3Cc3ccccc32)cc1OC` [Example 300, N-[(3S)-1-Azabicyclo[2.2.2]oct-3-yl]-10-[(2,2′-dimethoxy[1,1′-biphenyl]-4-yl)carbonyl]-10,11-dihydro-5H-pyrrolo[2,1-c][1,4]benzodiazepine-3-carboxamide], for which the inhibition at 0.1 µM amounted to 72%.

`COc1ccccc1-c1ccc(C(=O)N2Cc3ccc(C(=O)N[C@H]4CN5CCC4CC5)n3Cc3ccccc32)cc1` [Example 296, N-[(3R)-1-Azabicyclo[2.2.2]oct-3-yl]-10-[(2′-methoxy[1,1′-biphenyl]-4-yl)carbonyl]-10,11-dihydro-5H-pyrrolo[2,1-c][1,4]benzodiazepine-3-carboxamide]: the inhibition at 0.1 µM turned out to be 88%.

`COc1cc(C(=O)N2Cc3ccc(C(=O)N4CCN(C(C)C)CC4)n3Cc3ccccc32)ccc1-n1c(C)ccc1C` [Example 319, {10-[4-(2,5-Dimethyl-1H-pyrrol-1-yl)-3-methoxybenzoyl]-10,11-dihydro-5H-pyrrolo[2,1-c][1,4]benzodiazepin-3-yl}(4-isopropyl-1-piperazinyl)methanone]: the inhibition at 0.1 µM worked out at 22%.

As to `COc1cc(-c2ccccc2C)c(Cl)cc1C(=O)N1Cc2ccc(C(=O)N[C@@H](CCCCNC(=O)OC(C)(C)C)C(N)=O)n2Cc2ccccc21` [Example 304, tert-Butyl (5S)-6-amino-5-[({10-[(6-chloro-3-methoxy-2′-methyl[1,1′-biphenyl]-4-yl)carbonyl]-10,11-dihydro-5H-pyrrolo[2,1-c][1,4]benzodiazepin-3-yl}carbonyl)amino]-6-oxohexylcarbamate], the inhibition at 0.1 µM amounted to 74%.

`COc1cccc(-c2ccc(C(=O)N3Cc4ccc(C(=O)N5CCCN(C)CC5)n4Cc4ccccc43)cc2C)c1` [Example 64, {10-[(3′-Methoxy-2-methyl[1,1′-biphenyl]-4-yl)carbonyl]-10,11-dihydro-5H-pyrrolo[2,1-c][1,4]benzodiazepin-3-yl}(4-methyl-1,4-diazepan-1-yl)methanone]: the inhibition at 0.1 µM was found to be 74%.

In the case of `COc1cc(C(=O)N2Cc3ccc(C(=O)N4CCCN(C)CC4)n3Cc3ccccc32)ccc1-c1ccccc1C` [Example 66, {10-[(2-Methoxy-2′-methyl[1,1′-biphenyl]-4-yl)carbonyl]-10,11-dihydro-5H-pyrrolo[2,1-c][1,4]benzodiazepin-3-yl}(4-methyl-1,4-diazepan-1-yl)methanone], the inhibition at 0.1 µM amounted to 87%.

As to `COc1ccccc1-c1ccc(C(=O)N2Cc3ccc(C(=O)N[C@@H](Cc4c[nH]cn4)C(N)=O)n3Cc3ccccc32)cc1C` [Example 288, N-[(1S)-2-Amino-1-(1H-imidazol-4-ylmethyl)-2-oxoethyl]-10-[(2′-methoxy-2-methyl[1,1′-biphenyl]4-yl)carbonyl]-10,11-dihydro-5H-pyrrolo[2,1-c][1,4]benzodiazepine-3-carboxamide], the inhibition at 0.1 µM was determined as 95%.

Take `CCOc1ccccc1-c1cc(OC)c(C(=O)N2Cc3cccn3Cc3ccccc32)cc1Cl` [Example 17, 10-{[6-Chloro-3-methoxy-2′-ethoxy[1,1′-biphenyl]-4-yl]carbonyl}-10,11-dihydro-5H-pyrrolo[2,1-c][1,4]benzodiazepine]: the inhibition at 0.1 µM stood at 28%.

As to `Cc1cc(C(=O)N2Cc3cccn3Cc3ncccc32)ccc1-c1ccccc1C(F)(F)F` [Example 323F, (2-Methyl-2′-trifluoromethyl-[1,1′-biphenyl]-4-yl)-(4H,10H-3a,5,9-triaza-benzo[f]azulen-9-yl)-methanone], the inhibition at 0.1 µM is 33%.

Regarding `COc1ccccc1-c1ccc(C(=O)N2Cc3ccc(C(=O)N[C@@H]4CN5CCC4CC5)n3Cc3ccccc32)cc1C` [Example 295, N-[(3S)-1-Azabicyclo[2.2.2]oct-3-yl]-10-[(2′-methoxy-2-methyl[1,1′-biphenyl]-4-yl)carbonyl]-10,11-dihydro-5H-pyrrolo[2,1-c][1,4]benzodiazepine-3-carboxamide], the inhibition at 0.1 µM turned out to be 79%.

Regarding `COc1cc(C(=O)N2Cc3ccc(C(=O)NCCN4CCCCC4)n3Cc3ccccc32)ccc1-n1c(C)ccc1C` [Example 314, 10-[4-(2,5-Dimethyl-1H-pyrrol-1-yl)-3-methoxybenzoyl]-N-[2-(1-piperidinyl)ethyl]-10,11-dihydro-5H-pyrrolo[2,1-c][1,4]benzodiazepine-3-carboxamide], the inhibition at 0.1 µM turned out to be 19%.

Take `Cc1cc(C(=O)N2Cc3cccn3Cc3ccccc32)ccc1-c1ccncc1` [Example 31, [3-Methyl-4-(4-pyridinyl)phenyl]-[10,11-dihydro-5H-pyrrolo[2,1-c][1,4]benzodiazepin-10-yl]methanone]: the inhibition at 0.1 µM is 69%.

With `COc1cccc(-c2cc(OC)c(C(=O)N3Cc4ccc(C(=O)N[C@@H](CCCCNC(=O)OC(C)(C)C)C(N)=O)n4Cc4ccccc43)cc2Cl)c1` [Example 302, tert-Butyl (5S)-6-amino-5-[({10-[(6-chloro-3,3′-dimethoxy[1,1′-biphenyl]-4-yl)carbonyl]-10,11-dihydro-5H-pyrrolo[2,1-c][1,4]benzodiazepin-3-yl}carbonyl)amino]-6-oxohexylcarbamate], the inhibition at 0.1 µM is 64%.

Take `COc1cc(C(=O)N2Cc3ccc(C(=O)N(C)CCN(C)C)n3Cc3ccccc32)ccc1-n1c(C)ccc1C` [Example 309, N-[2-(Dimethylamino)ethyl]-10-[4-(2,5-dimethyl-1H-pyrrol-1-yl)-3-methoxybenzoyl]-N-methyl-10,11-dihydro-5H-pyrrolo[2,1-c][1,4]benzodiazepine-3-carboxamide]: the inhibition at 0.1 µM is 72%.
